Measurements taken from the NIST ThermoML archive (doi:10.1021/acs.jced.8b01135).
± gives the expanded uncertainty stated by the source.

Assay: xn = mol fraction of the nth substance listed
Conditions: 102 kPa, Liquid; for mass density: Vibrating tube method; for viscosity: Concentric cylinders viscometry; for speed of sound: Frequency=3 MHz, Single path-length method

CCCCCCCC1CCCCC1 [heptylcyclohexane] + CCCCCCCCCCCC
Conditions	mass density, 303.15 K [kg/m3]	mass density, 313.15 K [kg/m3]	mass density, 323.15 K [kg/m3]	mass density, 333.15 K [kg/m3]	speed of sound, 313.15 K [m/s]	speed of sound, 323.15 K [m/s]	speed of sound, 333.15 K [m/s]	viscosity, 313.15 K [mPa·s]	viscosity, 323.15 K [mPa·s]	viscosity, 333.15 K [mPa·s]
x1 = 0.1002	–	740.48 ± 0.71	733.2 ± 0.71	725.89 ± 0.71	1228.4 ± 0.8	1191.3 ± 0.8	1155.3 ± 0.8	1.13 ± 0.02	0.976 ± 0.021	0.851 ± 0.021
x1 = 0.201	–	746.79 ± 0.71	739.54 ± 0.71	732.26 ± 0.71	1236.2 ± 0.8	1199.2 ± 0.8	1163.2 ± 0.8	1.19 ± 0.02	1.02 ± 0.02	0.891 ± 0.021
x1 = 0.3	–	753.05 ± 0.71	745.82 ± 0.71	738.56 ± 0.71	1244.2 ± 0.8	1207.3 ± 0.8	1171.2 ± 0.8	1.25 ± 0.02	1.08 ± 0.02	0.933 ± 0.021
x1 = 0.3998	–	759.25 ± 0.71	752.06 ± 0.71	744.84 ± 0.71	1251.2 ± 0.8	1214.3 ± 0.8	1178.5 ± 0.8	1.32 ± 0.02	1.13 ± 0.02	0.977 ± 0.021
x1 = 0.5002	–	765.6 ± 0.71	758.43 ± 0.71	751.23 ± 0.71	1259.6 ± 0.8	1222.8 ± 0.8	1186.8 ± 0.8	1.39 ± 0.02	1.19 ± 0.02	1.03 ± 0.02
x1 = 0.5999	778.98 ± 0.71	771.86 ± 0.71	764.71 ± 0.71	757.54 ± 0.71	1267.3 ± 0.8	1230.6 ± 0.8	1194.6 ± 0.8	1.47 ± 0.02	1.25 ± 0.02	1.08 ± 0.02
x1 = 0.6998	785.18 ± 0.71	778.09 ± 0.71	770.98 ± 0.71	763.84 ± 0.71	1274.6 ± 0.8	1238 ± 0.8	1202.4 ± 0.8	1.54 ± 0.02	1.32 ± 0.02	1.14 ± 0.02
x1 = 0.8001	791.51 ± 0.71	784.43 ± 0.71	777.34 ± 0.71	770.22 ± 0.71	1283 ± 0.9	1246.3 ± 0.9	1210.5 ± 0.9	1.63 ± 0.02	1.38 ± 0.02	1.18 ± 0.02
x1 = 0.8998	797.69 ± 0.71	790.64 ± 0.71	783.57 ± 0.71	776.49 ± 0.71	1290.5 ± 0.9	1253.9 ± 0.9	1218.5 ± 0.9	1.73 ± 0.02	1.45 ± 0.02	1.23 ± 0.02
x1 = 1	803.98 ± 0.71	796.95 ± 0.71	789.91 ± 0.71	782.85 ± 0.71	1298.8 ± 0.9	1262.2 ± 0.9	1226.7 ± 0.9	1.85 ± 0.02	1.55 ± 0.02	1.31 ± 0.02
